The subject of one assay is Penicillium expansum. Put plainly: Apples dipped in fungicidal solution, then inoculated with Penicillium expansum spores at cuticle injuries. The class given is in vivo. The note with it: for % Efficacy [Abbott] at 6 d: 6 d after inoculation; for % Efficacy [Abbott] at 10 d: 10 d after inoculation; for % Efficacy [Abbott] at 15 d: 15 d after inoculation. How it is done:
(§1) In Example 1 and Example 2 all compounds except fluopyram were applied as commercially available. 1 weight proportion of fluopyram, however, was mixed with solvents (24.5 w/w acetone, 24.5 w/w dimethylacetamid) and emulsifier (1 w/w), respectively. Afterwards, the product was diluted in water. The concentration used is indicated below. Apples were dipped in a fungicidal solution and kept in plastic boxes for drying. Afterwards 10 μl of a spore solution of Penicillium expansum has been applied to injuries of the cuticle of the fruits. The trial has been assessed at different time intervals after inoculation. The efficacy of the products has been calculated based on the fungal growth of the treated apples with reference to the inoculated untreated control. The efficacy is shown as % Abbott.

Another assay deals with Botrytis cinerea. Put plainly: Apples dipped in fungicidal solution, then inoculated with Botrytis cinerea spores at cuticle injuries. Conditions: dip 100 g a.i./1000 ltr. The class given is in vivo. How it is done: as §1, with “Botrytis cinerea” for “Penicillium expansum”, “6d and 10d” for “different time intervals”
Setting [1] is: dip 100 g a.i./1000 ltr., Table 1b.
Setting [2] is: dip 100 g a.i./1000 ltr., Table 1a.
Setting [3] is: dip 750 g a.i./1000 ltr., Table 1b.
Where [4] appears, read: dip 50 g a.i./1000 ltr., Table 1b.

Structures are written as SMILES.

Data on four compounds can be found in patent publication US20110034496A1, “POST-HARVEST TREATMENT” (Bayer CropScience AG, priority 2007, published 2011).

As for `O=C(NCCc1ncc(C(F)(F)F)cc1Cl)c1ccccc1C(F)(F)F` [Fluopyram, N-{2-[3-chloro-5-(trifluoromethyl)pyridin-2-yl]ethyl}-2-(trifluoromethyl)-benzamide], the “% Efficacy [Abbott] at 6 d” value is 93% in the assay on Penicillium expansum (setting [1]) and 98% with Botrytis cinerea (6 d after inoculation). Further, the “% Efficacy [Abbott] at 10 d” value in the assay with Penicillium expansum (setting [1]) worked out at 90%; with Botrytis cinerea (10 d after inoculation), 96%. The “% Efficacy [Abbott] at 15 d” value with Penicillium expansum (setting [1]) turned out to be 70%.

On to `CC(C)(C)C(O)(CCc1ccc(Cl)cc1)Cn1cncn1` (centres unmarked) [Tebuconazole, tebuconazole], for which, in the assay on Penicillium expansum (setting [2]), the “% Efficacy [Abbott] at 6 d” value stood at 100% and the “% Efficacy [Abbott] at 10 d” value was determined as 100%. In addition, the “% Efficacy [Abbott] at 14 d” value with Penicillium expansum (dip 100 g a.i./1000 ltr., 14 d after inoculation, Table 1a) amounted to 100%.

Consider `Cc1ccc(N(SC(F)(Cl)Cl)S(=O)(=O)N(C)C)cc1` [Tolylfluanid, tolylfluanid], for which, in the assay with Penicillium expansum (setting [3]), the “% Efficacy [Abbott] at 6 d” value was found to be 64%, the “% Efficacy [Abbott] at 10 d” value is 60% and the “% Efficacy [Abbott] at 15 d” value is 60%.

For the compound `CON=C(C(=O)OC)c1ccccc1CON=C(C)c1cccc(C(F)(F)F)c1` [Trifloxystrobin, trifloxystrobin], in the assay with Penicillium expansum (setting [4]), the “% Efficacy [Abbott] at 6 d” value is given as 50%, the “% Efficacy [Abbott] at 10 d” value worked out at 63% and the “% Efficacy [Abbott] at 15 d” value was determined as 52%.
